Test results reported in US20230201382A1, “RADIOLIGANDS FOR MYELIN” (CASE WESTERN RESERVE UNIVERSITY, priority 2016, published 2023).

How the values were obtained:
myelin [1] = experiment: In situ staining after tail vein injection (Example 2); type: in vivo, mouse; details: 1.0 mg (50 mg/kg) tail vein, WT mice, 1 h
Method: Wild-type mice were administered the newly synthesized compounds (40 mg/kg) via tail vein injection, and 30-60 min later the mice were perfused transcardially with saline followed by 4% PFA in PBS. Brains and spinal cords were then removed, postfixed by immersion in 4% PFA overnight, dehydrated in 30% sucrose solution, cryostat sectioned at 100 μm, mounted on superfrost slides, and images were acquired directly using a Leica fluorescent microscope.
Following the in vitro studies, we then investigated the ability of compound 21 to readily enter the brain and bind to myelin in situ. A dose of 1.0 mg of compound 21 (50 mg/kg) was administered via the tail vein to wild-type (WT) mice. One hour after injection, the mice were perfused with saline followed by 4% paraformaldehyde (PFA) and the brain and spinal cord were removed and sectioned. The distribution of compound 21 was then directly examined under a fluorescent microscope.

myelin [2] = experiment: In vitro detection of focal demyelination, LPC rat model; type: binding; details: LPC-induced focal demyelination, rat brain sections
Method: Sprague-Dawley female rats (220-250 g, 8 weeks old) were anesthetized and positioned in a stereotaxic frame (Stoelting). A small incision was made in the scalp, and the corpus callosum was targeted using the following stereotaxic coordinates, relative to bregma: anterior-posterior, 0.0 mm; medial-lateral, 2.0 mm; and dorsal-ventral, 3.4 mm. A small hole was drilled in the skull, and a 26S-gauge needle attached to a 10 μL Hamilton Syringe was lowered into the corpus callosum according to the dorsal-ventral coordinate. A microinjector pump (Stoelting) controlled the infusion of 6 μL of lysolecithin (LPC, 0.1% in saline) at a rate of 0.25 μL/min, after which the needle was left in place for 2 min in order to prevent liquid reflux out of the brain parenchyma. The incision was then closed using 5-0 Ethicon sutures, and the animals were allowed to recover on a heating pad. After 5-7 days, the animals were ready for study.
Five days after surgery, the rats were anesthetized and perfused with saline followed by 4% PFA. […] Sections were then examined under a microscope (Leica DM4000B, Leica Microsystem Inc., Buffalo Grove, Ill., USA) equipped for fluorescence (DFC7000T), and images of the stained mouse whole brain sections were acquired with the same exposure time. […]

myelin [3] = experiment: In vitro tissue staining and fluorescent intensity ratio, mouse brain sections (Example 1); type: binding; details: 1 mM staining solution, 25 min
Method: Wild-type mice (20-22 g, 8 weeks old) were deeply anesthetized and perfused transcardially with precooled saline (4° C., 10 mL/min for 1 min followed by 7 mL/min for 6 min) followed by fixation with precooled 4% PFA in PBS (4° C., 10 mL/min for 1 min followed by 7 mL/min for 6 min). Brain tissues were then removed, postfixed by immersion in 4% PFA overnight, dehydrated in 10%, 20%, and 30% sucrose solution, embedded in a freezing compound (OCT, Fisher Scientific, Suwanee, Ga.), and sectioned at […] with a cryostat (Thermo HM525, Thermo Fisher Scientific Inc., Chicago, Ill., USA). […] Sections were then examined under a microscope (Leica DM4000B, Leica Microsystem Inc., Buffalo Grove, Ill., USA) equipped for fluorescence (DFC7000T), and images of the stained mouse whole brain sections were acquired with the same exposure time. ImageJ software was then used to quantify pixel intensity values on 6 sections of each tested compound. […] Images were analyzed by two experienced individuals. The FIR of white matter to gray matter were then calculated.
In vitro Staining and Assay of the Fluorescent Intensity. […] Next, we selected a representative region in the genus of the corpus callosum (gcc) and a representative region in the subcortical gray matter (cortex) and calculated the fluorescent intensity ratio (FIR) between both regions (FIG. 2A). […]

myelin [4] = experiment: Quantitative microPET/CT imaging of spinal cord, rat SCI model; type: in vivo
Method: Sprague-Dawley female rats (220-250 g, 8 weeks old) were anesthetized and a restricted laminectomy was conducted to expose the dorsal surface of T13. The vertebral column between T12 and L1 was then stabilized with clamps and forceps fixed to the base of an Infinite Horizon impact device. The midpoint of T13 was impacted with a force of 250 kDyn using a 2.5 mm stainless steel impactor tip, which was used to induce a moderately severe contusive injury to the spinal cord. The musculature was then sutured over the laminectomy site and the skin closed with wound clips followed by subsequent treatment with Marcaine at the incision site. The force/displacement graph was used to monitor impact consistency. After surgery, the animals were carefully monitored daily for pain and body weight with manual bladder expression 2-3 times daily to stimulate reflex voiding until the animals could urinate independently.
(§1) For better anatomic localization, CT coregistration was applied.
So far, imaging of the spinal cord remains a great challenge. […] Next, we asked whether [18F]21 PET is capable of in vivo imaging of myelin deficiency or myelin damage in living animal models. We conducted [^18F]21-PET imaging in a rat model of thoracic contusive SCI. In this model, the contusion was made at T13 to introduce demyelination. In vivo [^18F]21 PET imaging was performed before (as a baseline scan) and 1 day after contusion. The uptake of [^18F]21 in every spine segment was then normalized to the average spine uptake. […] After microPET/CT imaging, we conducted in situ histological staining of the spinal cord 60 min after injection of nonlabeled compound 21 through the tail vein.

myelin [5] = experiment: In situ autoradiography of mouse brain (Example 2); type: in vivo; details: mouse brain coronal sections
Method: Wild-type mice were euthanized at 30 min post iv injection of [^18F]21 (111 MBq, 3.0 mCi). The brains were rapidly removed, placed in OCT embedding medium, and frozen at −20° C. After reaching equilibrium at this temperature, the brains were coronally sectioned at 60 μm on a cryostat and mounted on superfrost slides. After drying by air at room temperature, the slides were put in a cassette and exposed for 20 min to film to obtain images.
To validate the PET results and confirm that the PET signals were indeed from specific binding to myelin, we conducted ex vivo autoradiography in the mouse brain following administration of [^18F]21 through tail vein injections. After 1 h, the mouse brain was dissected for coronal tissue sectioning. […] Thus, combination of in situ autoradiography and PET imaging confirmed that [^18F]21 binds specifically to myelin in vivo.

myelin [6] = experiment: Quantitative microPET/CT imaging in Shiverer and WT mice; type: in vivo, mouse; details: SUVs from 40 to 60 min
Method: as §1
To further evaluate the in vivo binding specificity of [^18F]21, we investigated the pharmacokinetic profiles of [^18F] 21 in a Shiverer mouse model that is deficient in myelin in the brain. Thus, the pharmacokinetic profiles of [^18F]21 were quantitatively compared between Shiverer mice (C3Fe.SWV-Mbpshi/J, n=2) and age-matched WT mice (CB57J, n=2).
Dynamic emission scans were acquired for 60 min in 3D list mode immediately after [^18F]21 (0.3 mCi each mouse, 11.1 MBq) was administered. The brain uptake of [^18F]21 was lower in the Shiverer brain than in the WT littermates (1.25 vs 1.64). After the brain concentration of [^18F]21 reached a plateau, the SUVs from 40 to 60 min were summarized and compared.

myelin [7] = experiment: Quantitative microPET/CT imaging in WT rats (Example 2); type: in vivo, rat
Method: as §1
Following radiosynthesis, the pharmacokinetic profile of [^18F]21 was fully characterized by quantitative microPET/CT imaging in WT rats (n=3). […] The brain radioactivity peaked at 3 min postinjection followed by rapid clearance before reaching a plateau at 40-60 min postinjection.

**Q.** Which results are given for `CNc1ccc(/C=C/c2ccc(NCc3cn(CCF)nn3)cc2)cc1` [Compound 21, (E)-N-((1-(2-Fluoroethyl)-1H-1,2,3-triazol-4-yl)methyl)-4-(4-(methylamino)styryl)aniline]?
**A.** brain and spinal cord entry and myelin binding in situ (myelin [1]): readily entered the brain and spinal cord and localized in all the myelinated regions in proportion to the myelin content; brain and spinal cord entry and myelin binding in situ (myelin [1]; listed as TAFDAS): readily penetrates the BBB and binds to myelin membranes in the brain and spinal cord; detection of demyelinated lesion by fluorescent staining (myelin [2]): capable of detecting the demyelinated focal lesion by fluorescent staining

**Q.** How did the “fluorescent intensity ratio (FIR) white matter (gcc) vs gray matter (cortex)” value (myelin [3]) turn out when `CNc1ccc(/C=C/c2ccc(N)c(OCCF)c2)cc1` [Compound 32, (E)-4-(4-Amino-3-(2-fluoroethoxy)styryl)-N-methylaniline] was run?
**A.** > 2

**Q.** How did the “fluorescent intensity ratio (FIR) white matter (gcc) vs gray matter (cortex)” value (myelin [3]) turn out when `CC(C)Nc1ccc(/C=C/c2ccc(N)c(OCCF)c2)cc1` [Compound 35, (E)-4-(4-Amino-3-(2-fluoroethoxy)styryl)-N-isopropylaniline] was run?
**A.** > 2

**Q.** With `CNc1ccc(/C=C/c2ccc(NCc3cn(CC[18F])nn3)cc2)cc1` [[^18F]21] as the compound, how does the “uptake at L1 normalized to average spine uptake” value (myelin [4]; 1 day post-T13 contusion) read?
**A.** 1.08

**Q.** What about the “uptake at T12 normalized to average spine uptake” value (myelin [4]; 1 day post-T13 contusion) of the same compound?
**A.** 0.99

**Q.** What about the “uptake at T13 normalized to average spine uptake” value (myelin [4]; 1 day post-T13 contusion (SCI group)) of the same compound?
**A.** 0.81

**Q.** What about the “uptake at L1 normalized to average spine uptake” value (myelin [4]; before contusion (baseline)) of the same compound?
**A.** 1.05

**Q.** And the “uptake at T12 normalized to average spine uptake” value (myelin [4]; before contusion (baseline))?
**A.** 0.99

**Q.** And the “uptake at T13 normalized to average spine uptake” value (myelin [4]; before contusion (baseline))?
**A.** 1.02

**Q.** What about the “labeling in ex vivo autoradiography” value (myelin [5]) of the same compound?
**A.** distinctly labeled the corpus callosum

**Q.** And the “uptake at 40-60 min, Shiverer vs control” value (myelin [6])?
**A.** significantly decreased compared to the control mouse brain

**Q.** And the “uptake in the brain” value (myelin [7])?
**A.** high uptake in the brain

**Q.** And the “time of peak brain radioactivity” value (myelin [7]; postinjection)?
**A.** 3 min
